Assay results: patent US8350079B2, “Treprostinil formulation” (United Therapeutics Corporation, priority 2008, dated 2013)

Tests used:
[1] = Stability tests of treprostinil forms (dimer formation, room temperature stability); format: physicochemical
Description: The anhydrous form of treprostinil (TREPROSTINIL) has been previously described, e.g., in J. Org. Chem. 2004, 69, 1890-1902. […] A larger amount of dimers can form at higher temperatures. However, dimer formation is negligible at 5° C. Therefore, anhydrous treprostinil must be refrigerated for storage and transport. In the past, treprostinil had to be refrigerated and shipped with ice packs to maintain low (2° C.-8° C.) temperatures.
The instability of anhydrous treprostinil also imposes challenges to its preparation. To obtain anhydrous treprostinil, wet compound from recrystallization was heated in a vacuum. […] Therefore, heating temperature must be carefully controlled to avoid high heat when drying treprostinil in order to remove all water, otherwise these two dimer impurities will be produced.
Data has been generated to characterize a monohydrate form of treprostinil. […] Treprostinil monohydrate can be stored and shipped with no special handling.

[2] = Stability of anhydrous treprostinil at 25° C. (6-month stability report, lot 01A07002); format: physicochemical
Description: II. Stability of Anhydrous Form Versus Monohydrate Form of TREPROSTINIL at 25° C.
1. Stability Report (6-month) for anhydrous lot #01A07002
A 3.34-kg sample of treprostinil diethanolamine salt was dissolved in 40 L of sterile water, 60 L of ethyl acetate and 3.2 L of 3 M HCl were added and the mixture stirred. The layers were separated and the aqueous layer was extracted thrice with 20-L portions of ethyl acetate. The four organic layers were combined, the organic solution washed twice with 20-L portions of sterile water, once with 20 L of brine and dried over 2.97 kg of anhydrous sodium sulfate. The mixture was filtered and the filtrate was concentrated to yield treprostinil as a gummy solid. This solid was transferred to glass drying trays and let air-dry for 93 hours. This solid was then dissolved in 23.4 kg of ethanol, warmed to 48° C. and treated with 23.4 kg of warm (40-50° C.) sterile water. The solution was stirred and then stirring was stopped to allow the treprostinil to slowly crystallize. The resulting white solid was collected by filtration in an Aurora filter, washed with 45 L of a cold (6° C.) 20% ethanol in sterile water solution, the filter moved to a Hepa-filtered Finishing Room and the solid dried under house vacuum for 22.3 hours. The solid was transferred to drying trays and further dried in a vacuum oven at 55 deg. C and 0.26 Torr for 22.7 hours to give 2.63 kg (96.3%) of anhydrous treprostinil (Lot #01A07002) as a white solid.

Dimer formation ([1]; 5° C.): negligible
Stability (stability tests) ([1]; 25° C., dimers formed upon standing): not stable
Dimer formation on heating the solid ([1]; solid heated above 50° C. in vacuum drying): two dimers of treprostinil formed
HPLC Assay 750W93 ([2]; 3 months): 1.2
HPLC Assay 751W93 ([2]; 3 months): 0.9
HPLC Assay Treprostinil ([2]; 3 months): 98.1%
Physical examination ([2]; 3 months): White powder
Water (Karl Fischer) ([2]; 3 months): 0.7%
HPLC Assay 750W93 ([2]; 6 months): 1.5
HPLC Assay 751W93 ([2]; 6 months): 1.1
HPLC Assay Treprostinil ([2]; 6 months): 95.4%
Physical examination ([2]; 6 months): White powder
Water (Karl Fischer) ([2]; 6 months): 0.8%
HPLC Assay 750W93 ([2]; Initial): 0.2
HPLC Assay 751W93 ([2]; Initial): 0.3
HPLC Assay Treprostinil ([2]; Initial): 99.6%
Physical examination ([2]; Initial): White powder
Water (Karl Fischer) ([2]; Initial): 0.4%
Compound: CCCCC[C@H](O)CC[C@@H]1[C@H]2Cc3cccc(OCC(=O)O)c3C[C@H]2C[C@H]1O [Lot No. 01 A07002 (Anhydrous), 2-((1R,2R,3aS,9aS)-2-hydroxy-1-((S)-3-hydroxyoctyl)-2,3,3a,4,9,9a-hexahydro-1H-cyclopenta[b]naphthalen-5-yloxy)acetic acid]
